Read-outs that look alike come from different tables or passages of the source.
Columns and labels:
rSmTAChE [1] = molecular target: T1, rSmTAChE (Schistosoma mansoni, UniProt A0A3Q0KMM5); type: biochemical;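 for Inhibition (%) (Average): mostly 20 µM final but a few compounds at 5 or 10 µM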;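 for Inhibition (%) Replicate A: mostly 20 µM final but a few compounds at 5 or 10 µM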;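 for Inhibition (%) Replicate B: mostly 20 µM final but a few compounds at 5 or 10 µM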
[2] = molecular target: recombinant human acetylcholinesterase, rHsAChE (Homo sapiens, UniProt P22303); test: biochemical
Sequence of recombinant human acetylcholinesterase, rHsAChE (P22303 32-614): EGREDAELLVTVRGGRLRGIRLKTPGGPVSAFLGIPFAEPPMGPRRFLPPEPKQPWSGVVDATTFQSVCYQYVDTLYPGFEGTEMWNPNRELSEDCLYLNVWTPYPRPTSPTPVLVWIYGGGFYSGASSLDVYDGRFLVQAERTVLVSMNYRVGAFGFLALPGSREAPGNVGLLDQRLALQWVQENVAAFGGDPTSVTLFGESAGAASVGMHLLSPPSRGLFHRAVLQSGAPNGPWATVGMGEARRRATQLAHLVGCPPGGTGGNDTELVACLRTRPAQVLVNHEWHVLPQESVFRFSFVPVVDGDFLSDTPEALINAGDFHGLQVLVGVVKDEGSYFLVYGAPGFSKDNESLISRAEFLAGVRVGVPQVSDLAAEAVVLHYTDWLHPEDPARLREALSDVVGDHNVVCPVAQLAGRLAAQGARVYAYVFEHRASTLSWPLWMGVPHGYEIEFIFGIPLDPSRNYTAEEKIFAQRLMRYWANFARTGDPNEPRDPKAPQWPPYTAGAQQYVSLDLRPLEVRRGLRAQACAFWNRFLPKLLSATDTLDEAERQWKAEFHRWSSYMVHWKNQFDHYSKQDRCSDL

rSmTAChE [3] = molecular target: T1, rSmTAChE; test: biochemical; conditions: for inhibition at 20 µM: read-out: rSmTAChE HTS Inhibition (Ave, %)
[4] = read-out: qAC50 (IC50), rHsAChE
[5] = dose response analysis of Drug Repurposing Hub hits against rHsAChE
[6] = read-out: qAC50 (IC50), rSmTAChE

T1 sequence (A0A3Q0KMM5 27-661 limits assumed): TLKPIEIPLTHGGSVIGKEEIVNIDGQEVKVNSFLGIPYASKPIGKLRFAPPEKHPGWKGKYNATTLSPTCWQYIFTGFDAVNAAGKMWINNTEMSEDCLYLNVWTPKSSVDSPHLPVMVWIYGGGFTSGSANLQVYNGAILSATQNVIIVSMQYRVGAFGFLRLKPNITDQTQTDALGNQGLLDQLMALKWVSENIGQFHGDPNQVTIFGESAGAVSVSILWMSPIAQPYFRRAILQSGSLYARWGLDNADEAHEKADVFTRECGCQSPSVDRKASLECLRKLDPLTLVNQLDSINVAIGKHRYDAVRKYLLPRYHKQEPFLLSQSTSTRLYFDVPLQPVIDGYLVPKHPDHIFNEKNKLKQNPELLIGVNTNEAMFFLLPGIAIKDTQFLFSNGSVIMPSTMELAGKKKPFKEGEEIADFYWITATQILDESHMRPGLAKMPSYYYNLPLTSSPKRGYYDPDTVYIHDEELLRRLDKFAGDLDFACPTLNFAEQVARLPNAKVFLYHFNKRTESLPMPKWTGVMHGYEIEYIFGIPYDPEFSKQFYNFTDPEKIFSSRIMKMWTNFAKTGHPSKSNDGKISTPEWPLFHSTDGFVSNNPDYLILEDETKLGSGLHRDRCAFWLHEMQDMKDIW

| SMILES | Data Mode (curve class), rSmTAChE (rSmTAChE [1]) | Data Mode (curve class), rHsAChE [2] | Inhibition (%) (Average) (rSmTAChE [3]) | Inhibition (%) Replicate A (rSmTAChE [3]) [%] | Inhibition (%) Replicate B (rSmTAChE [3]) [%] | rSmTAChE Data Mode (rSmTAChE [1]) | rHsAChE Data Mode [2] | also measured |
| --- | --- | --- | --- | --- | --- | --- | --- | --- |
| CCCCCCCCCCCC([NH2+][O-])c1cc(C)ccc1O (stereo not drawn) [BRD-A37752546-001-01-9] | inactive | decreasing | 84.23 | 82.45 | 86.01 |  |  | IC50 [2, 4]: 7.8 µM |
| COc1ccc(/C=C/CCCCOc2ccc(C(=O)c3cccc(C(=O)O)c3)cc2CCC(=O)O)cc1 [LY223982, reference compound] | decreasing | decreasing |  | 83.69 | 77.36 |  |  | IC50 (rSmTAChE [1]; read-out: IC50 (µM) rSmTAChE): 15.2 µM; SI (Sm/Hs) [2]: 2.1; IC50 ([2]; read-out: IC50 (µM) rHsAChE): 7.22 µM; rSmTAChE HTS Inhibition (Ave, %) (rSmTAChE [3]; 20 µM): 80.52% |
| COc1ccc(NC(=O)Nc2ccc3c(c2)[C@@H]2C[C@H](CC(=O)NCc4ccccc4F)O[C@@H](CO)[C@@H]2O3)cc1 [BRD-K05329107-001-01-3] |  |  | 62.78 | 63.88 | 61.69 | inactive | decreasing (weakly active) |  |
| C[C@H](CO)N1C[C@H](C)[C@H](CN(C)S(=O)(=O)c2ccc(F)cc2)Oc2c(NC(=O)Nc3cccc4ccccc34)cccc2C1=O [BRD-K73245004-001-02-0] |  |  | 68.21 | 69.56 | 66.86 | decreasing (weakly active) | inactive |  |
| O=C(Nc1cccc2c(=O)cc(-c3nnn[nH]3)oc12)c1ccc(OCCCCc2ccccc2)cc1 [Pranlukast, reference compound] | decreasing |  |  |  |  |  |  | SI (Sm/Hs) [2]: 2.18; IC50 ([2]; IC50 (µM) rHsAChE): 12.6 µM; Data Mode (curve class), rHsAChE [2, 5]: decreasing; inhibition at 20 µM (rSmTAChE [3]): 66.3% |
| CC1(COc2ccc3c(c2)ncn3-c2ccc3cccc(N4CCC(N)CC4)c3n2)COC1 [Crenolanib, reference compound] | decreasing (weakly active) |  |  |  |  |  |  | SI (Sm/Hs) [2]: 1.97; IC50 ([2]; Table 3, read-out: IC50 (µM) rHsAChE): 9.91 µM; Data Mode (curve class), rHsAChE [2, 5]: decreasing; inhibition at 20 µM (rSmTAChE [3]): 64.5% |
| O=C(O)c1ccc(-c2c[nH]c3ncc(-c4ccccc4)cc23)cc1C1CCCC1 [GSK-650394, reference compound] | decreasing |  |  |  |  |  |  | SI (Hs/Sm) (rSmTAChE [1]): 3.46; IC50 ([2]; IC50 (µM) rHsAChE): 8.1 µM; Data Mode (curve class), rHsAChE [2, 5]: decreasing; IC50 ([2]; qAC50 (IC50), rHsAChE): 8.09 µM; inhibition at 10 µM (rSmTAChE [3]; read-out: HTS/rSmTAChE Inhibition (Ave, %)): 75.4% |
| O=C(C[C@H]1C[C@H]2c3cc(NC(=O)Nc4ccc(C(F)(F)F)cc4)ccc3O[C@H]2[C@@H](CO)O1)NC1CCCCC1 [BRD-K18925241-001-01-0] |  |  | 70.28 | 62.39 | 78.17 | decreasing (weakly active) | inactive |  |
| Cc1nc2sccn2c(=O)c1CCN1CCC(=C(c2ccc(F)cc2)c2ccc(F)cc2)CC1 [BRD-K40887525-001-23-5] | decreasing (weakly active) | decreasing | 80.73 | 82.03 | 79.42 |  |  | IC50 (rSmTAChE [1]; [6]): > 19.5 µM; IC50 [2, 4]: 10.9 µM |
| C[C@]12CC[C@@H]3c4ccc(O)cc4C[C@@H](CCCCCCCCC[S+]([O-])CCCC(F)(F)C(F)(F)F)[C@H]3[C@@H]1CC[C@@H]2O (stereo partly drawn) [BRD-A85667082-001-13-5] | inactive | inactive | 86.15 | 85.50 | 86.80 |  |  |  |
| COc1ccc(NC(=O)Nc2ccc3c(c2)[C@@H]2C[C@H](CC(=O)NCc4ccc5c(c4)OCO5)O[C@H](CO)[C@@H]2O3)cc1 [BRD-K77518191-001-01-1] |  |  | 88.00 | 87.37 | 88.63 | decreasing (weakly active) | inactive |  |
| Cc1c(C(=O)NN2CCCCC2)nn(-c2ccc(Cl)cc2Cl)c1-c1ccc(Cl)cc1 [BRD-K13296708-001-05-8] | decreasing (weakly active) | inactive | 75.13 | 74.54 | 75.71 |  |  | IC50 (rSmTAChE [1]; [6]): > 38 µM |
| Cc1cc(SCc2sc(-c3ccc(C(F)(F)F)cc3)nc2C)ccc1OCC(=O)O [BRD-K14880289-001-03-0] | decreasing | decreasing | 75.45 | 71.99 | 78.91 |  |  | IC50 (rSmTAChE [1]; [6]): 16.4 µM; IC50 [2, 4]: 10.5 µM |
